The target in experiment [1] is T1, 5-HT2C receptor (Sus scrofa, UniProt K7GSR7).
T1 construct: pig brain choroid plexus membrane preparation; from tissue; host or cells: pig brain choroid plexus membrane preparation
T1 sequence (K7GSR7 1-457): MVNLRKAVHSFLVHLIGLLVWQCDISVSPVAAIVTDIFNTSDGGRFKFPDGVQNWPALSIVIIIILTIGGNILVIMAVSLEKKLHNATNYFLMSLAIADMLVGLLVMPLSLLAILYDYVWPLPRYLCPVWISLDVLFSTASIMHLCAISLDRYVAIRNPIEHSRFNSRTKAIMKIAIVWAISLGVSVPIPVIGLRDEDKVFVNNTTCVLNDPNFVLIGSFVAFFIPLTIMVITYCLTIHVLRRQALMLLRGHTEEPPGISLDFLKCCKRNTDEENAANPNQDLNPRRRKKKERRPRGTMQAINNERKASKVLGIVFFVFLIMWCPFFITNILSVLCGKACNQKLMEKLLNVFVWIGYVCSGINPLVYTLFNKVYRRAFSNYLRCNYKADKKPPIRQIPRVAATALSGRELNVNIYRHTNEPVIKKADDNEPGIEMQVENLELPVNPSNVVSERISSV
Nature of the experiment: 5-HT2C receptor binding ([3H]mesulergine, pig brain choroid plexus membrane preparation). To be noted: tritiated mesulergine, 37° C., read-out: Inhibition of receptor binding of the radioactive ligand, 5-HT2C (Ki). The protocol: (§1) 5-HT2A and 5-HT2C receptor binding was measured according to the methods described by Leysen et al. /Mol. Pharmacol., 21, 301 (1981)/ and Pazos et al. /Eur. J. Pharmacol., 106, 539 (1985)/, respectively. 5-HT2A receptor binding was measured in rat brain frontal cortex membrane preparation using tritiated ketanserine /3-/2-(4-fluorobenzoyl)- -1-piperidinyl/ethyl-2,4-(1H,3H)-quinazoline-dione/(60-90 Ci/mmole) as ligand. 5-HT2C receptor binding was measured in pig brain choroid plexus membrane preparation using tritiated mesulergine /N'-/(8)-1,6-dimethyl-ergoline-8-yl/-N,N-dimethylsulfamide (70-85 Ci/mmole) as the ligand. Non-specific binding to 5-HT2A and 5-HT2C receptors were determined in the presence of 10 micro M cyproheptadine/4-(5H-dibenzo/a,d/cycloheptene-5-ylidene)-1-methylpiperidine/ and 1 micro M mianserine/1,2,3,4,10,14b-hexahydro-2-methyldibenzo-/c,f/pyrazino/1,2-a/azepine/, respectively. The final incubation volumes were 250 and 1000 microlitres. Samples were incubated for 15 and 30 minutes at 37° C. Incubation was stopped by adding 9 ml of ice-cold 50 mM tris(hydroxymethyl)-aminomethane hydrochloride (pH=7.7) to the reaction mixture. The samples were rapidly filtered through Whatman GF/B glass fiber filters using reduced pressure. Before use, the filters were soaked in a 0.05% poly-ethyleneimine solution for 2 to 3 hours. Radioactivity of the filters was determined by a scintillation spectrometer.

Experiment [2] has as its target T2, 5-HT2A receptor (Oryctolagus cuniculus, UniProt G1SYA7).
T2 construct: The thoracic aorta segment after the aortic arch was removed; from tissue; host or cells: rabbit thoracic aorta, helical strips
Nature of the experiment: 5-HT2A receptor antagonistic effect: inhibition of 5-HT-evoked contractions on isolated rabbit aortic strips. Type of experiment: cell-based, rabbit (New-Zealand, male, white). To be noted: 5-HT 10^-6 M; phenoxybenzamine 10^-8 M; tranylcypramine 10^-7 M; 10 minutes incubation. How it is done: New-Zealand, male, white rabbits weighing 2.0 to 2.5 kg were killed by a blow on the head. The thoracic aorta segment after the aortic arch was removed and placed into a Krebs' solution (NaCl 118 mM, KCl 4.6 mM, NaHCO3 25 mM, glucose 10.5 mM, […] 1 mM, KH2PO4 1 mM, CaCl2 2.6 mM). The aorta was carefully cleaned from fat and connective tissue, and was cut into 3 mm wide and 30 mm long helical strips. Four strips were obtained from each rabbit. The strips were equilibrated at 37° C. for 60 minutes in an organ chamber filled with Krebs' solution. The strips were also oxygenated by bubbling carbogen gas (5% of carbon dioxide and 95% of oxygen) through the solution. The strips were stretched by 1 g tension.
The contractions were measured by a Hugo Sachs K-30 type strain gauge, and were registered on a Multicorder type polygraph. During the last 40 minutes of the equilibration, the MAO enzym inhibitor tranylcypramine (10^-7 M) /chemical name: (±)-trans-2-phenylcyclopropylamine/ was also added to the bath.
Any alpha-adrenergic effects of the test compounds were eliminated by 10^-8 M of phenoxybenzamine /N-(2-chloroethyl)-N-(1-methyl-2-phenoxyethyl)benzylamine/ /Clancy et al., J. Pharm. Exp. Ther., 233, 761 (1985). Testing of the serotonergic antagonistic effect was started at the 90th minute of incubation. The stability and reproducibility of the contractile response of the aortic strips to serotonin was tested by two consecutive application and wash-out procedures of 10^-6 M concentration of 5-HT, 40 minutes apart. […] 30 minutes after the second testing, a preset concentration of the test compound was added to the bath, and, after a 10 minutes incubation time, the response to 10^-6 M of 5-HT was determined in the presence of the compound to be tested.
Two different concentrations of a given compound were tested on each aortic strip by the above method. Reproducibility of the control 5-HT-evoked response was checked between testing the two concentrations of the compound.
IC50 was calculated by nonlinear curve fitting of the inhibitory effect of increasing concentrations of the test compound.

Experiment [3] has as its target T3, 5-HT2A receptor (Rattus norvegicus, UniProt P14842).
T3 construct: rat brain frontal cortex membrane preparation; from tissue; host or cells: rat brain frontal cortex membrane preparation
The experiment in a line: 5-HT2A receptor binding ([3H]ketanserine, rat brain frontal cortex membrane preparation). The conditions noted are these: tritiated ketanserine, 37° C., read-out: Inhibition of receptor binding of the radioactive ligand, 5-HT2A (Ki). The protocol:
as §1

This note sets out measurements from US6130215A, “Piperazinylalkylthiopyrimidine derivatives, pharmaceutical compositions containing the same and a process for the preparation of the novel compounds” (Egis Gyoyszergyar RT, priority 1995, dated 2000).

Some results are limits rather than exact numbers.

For orientation: Ki means a measure of affinity in units of concentration, obtained from inhibition or displacement. A word on the IC50: it is the concentration that gives 50% inhibition.

T3 sequence (P14842 whole entry): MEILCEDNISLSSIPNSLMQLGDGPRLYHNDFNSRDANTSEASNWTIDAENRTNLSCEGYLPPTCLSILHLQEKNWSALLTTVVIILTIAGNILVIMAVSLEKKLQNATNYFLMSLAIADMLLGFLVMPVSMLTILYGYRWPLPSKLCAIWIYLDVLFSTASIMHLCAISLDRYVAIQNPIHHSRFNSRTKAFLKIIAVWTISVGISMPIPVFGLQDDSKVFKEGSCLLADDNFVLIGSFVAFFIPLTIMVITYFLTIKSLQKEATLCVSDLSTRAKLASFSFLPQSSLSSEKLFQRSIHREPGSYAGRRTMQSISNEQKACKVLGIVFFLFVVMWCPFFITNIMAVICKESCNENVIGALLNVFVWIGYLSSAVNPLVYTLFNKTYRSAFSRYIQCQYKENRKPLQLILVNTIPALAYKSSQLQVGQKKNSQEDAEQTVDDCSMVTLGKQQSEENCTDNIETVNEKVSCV
T2 sequence (G1SYA7 1-469): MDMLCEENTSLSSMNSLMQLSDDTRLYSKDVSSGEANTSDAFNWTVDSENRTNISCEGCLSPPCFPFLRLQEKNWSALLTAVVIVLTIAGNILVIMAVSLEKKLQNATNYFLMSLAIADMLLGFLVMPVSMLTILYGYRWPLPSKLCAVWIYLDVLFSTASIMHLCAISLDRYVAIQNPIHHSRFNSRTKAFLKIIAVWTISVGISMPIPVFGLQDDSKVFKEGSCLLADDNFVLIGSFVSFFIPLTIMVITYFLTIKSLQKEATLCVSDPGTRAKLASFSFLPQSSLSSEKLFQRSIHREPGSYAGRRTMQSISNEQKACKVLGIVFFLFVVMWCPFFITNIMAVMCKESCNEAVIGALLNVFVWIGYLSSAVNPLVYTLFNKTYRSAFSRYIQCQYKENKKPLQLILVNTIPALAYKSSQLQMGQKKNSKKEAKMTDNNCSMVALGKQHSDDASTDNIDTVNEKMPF

Regarding `Nc1cc(N)nc(SCCN2CCN(Cc3ccc(F)cc3)CC2)n1` [Example 3, 2-[2-/4-(4-Fluorobenzyl)-1-piperazinyl/-ethylthio]-7-4,6-diaminopyrimidine], the Ki in experiment [1] is > 100 nM; in experiment [3], 58 nM. For the same compound, the IC50 in experiment [2] was 960 nM.

`Nc1cc(N)nc(SCCN2CCN(Cc3ccccc3Cl)CC2)n1` [Example 5, 2-[2-/4-(2-Chlorobenzyl)-1-piperazinyl/-ethylthio]-4,6-diaminopyrimidine]: the Ki in experiment [1] came out at 67 nM; in experiment [3] it was 16 nM. This compound returned an IC50 in experiment [2] of 250 nM.

As to `COc1cccc(CN2CCN(CCSc3nc(N)c(Cc4ccccc4)c(N)n3)CC2)c1` [Example 12, 2-[2-/4-(3-Methdxybenzyl)-1-piperazinyl/-ethylthio]-4,6-diamino-5-benzylpyrimidine], the results for the Ki in experiment [1] and in experiment [3] were 47 nM and > 100 nM, respectively.

With `Nc1nc(SCCN2CCN(Cc3ccccc3Cl)CC2)nc(N)c1Cc1ccccc1` [Example 13, 2-[2-/4-(2-Chlorobenzyl)-1-piperazinyl/-ethylthio]-4,6-diamino-5-benzylpyrimidine], the inhibitory constant (Ki) worked out at 12 nM in experiment [1] and 20 nM in experiment [3]. The compound also came in with an IC50 in experiment [2] of 120 nM.

Turning to `Nc1nc(SCCN2CCN(Cc3ccc([N+](=O)[O-])cc3)CC2)nc(N)c1Cc1ccccc1` [Example 14, 2-[2-/4-(4-Nitrobenzyl)-1-piperazinyl/-ethylthio]-4,6-diamino-5-benzylpyrimidine], the values for the Ki in experiment [1] and in experiment [3] were > 100 nM and 78 nM, respectively. In experiment [2], this compound returned an IC50 of 6000 nM.

Regarding `Nc1nc(SCCN2CCN(Cc3ccc([N+](=O)[O-])cc3)CC2)nc(N)c1Cc1ccccc1O` [Example 19, 2-[2-/4-(4-Nitrobenzyl)-1-piperazinyl/-ethylthio]-4,6-diamino-5-(2-hydroxybenzyl)-pyrimidine], the Ki is > 100 nM in experiment [1] and 48 nM in experiment [3].

For `Nc1nc(SCCN2CCN(Cc3cccc(C(F)(F)F)c3)CC2)nc(N)c1Cc1ccc(F)cc1` [Example 21, 2-[2-/4-(3-Trifluoromethylbenzyl)-1-piperazinyl/ethylthio]4,6-diamino-5-(4-fluorobenzyl)pyrimidine], the Ki in experiment [1] is 39 nM; in experiment [3] it was > 100 nM.

As to `COc1ccc(Cc2c(N)nc(SCCN3CCN(Cc4ccc(C)cc4)CC3)nc2N)cc1` [Example 23, 2-[2-/4-(4-Methylbenzyl)-1-piperazinyl/-ethylthio]-4,6-diamino-5-(4-methoxybenzyl)-pyrimidine], the values for the Ki in experiment [1] and in experiment [3] were > 100 nM and 20 nM, respectively. The compound further showed an IC50 in experiment [2] of 670 nM.

On to `COc1ccc(Cc2c(N)nc(SCCN3CCN(Cc4ccccc4C)CC3)nc2N)cc1` [Example 24, 2-[2-/4-(2-Methylbenzyl)-1-piperazinyl/-ethylthio]-4,6-diamino-5-(4-methoxybenzyl)-pyrimidine], for which the inhibition constant Ki in experiment [1] was 22 nM; in experiment [3], 18 nM. In experiment [2], the IC50 came to 240 nM.

The compound `COc1ccc(Cc2c(N)nc(SCCN3CCN(Cc4ccccc4C#N)CC3)nc2N)cc1` [Example 27, 2-[2-/4-(2-Cyanobenzyl)-1-piperazinyl/-ethylthio]-4,6-diamino-5-(4-methoxybenzyl)-pyrimidine] showed an IC50 in experiment [2] of 900 nM.

Turning to `COc1ccc(Cc2c(N)nc(SCCN3CCN(Cc4cccc(OC)c4)CC3)nc2N)cc1` [Example 28, 2-[2-/4-(3-Methoxybenzyl)-1-piperazinyl/-ethylthio]-4,6-diamino-5-(4-methoxybenzyl)-pyrimidine], the Ki in experiment [1] is 50 nM; in experiment [3] it was > 100 nM.

With `COc1ccccc1Cc1c(N)nc(SCCN2CCN(Cc3ccc([N+](=O)[O-])cc3)CC2)nc1N` [Example 34, 2-[2-/4-(4-Nitrobenzyl)-1-piperazinyl/-ethylthio]-4,6-diamino-5-(2-methoxy-benzyl)pyrimidine], the Ki was > 100 nM in experiment [1] and 71 nM in experiment [3].

On to `COc1ccc(Cc2c(N)nc(SCCN3CCN(Cc4cccc(C(F)(F)F)c4)CC3)nc2N)cc1` [Example 35, 2-[2-/4-(3-Trifluoromethylbenzyl)-1-piperazinyl/-ethyl-thio]-4,6-diamino-5-(4-methoxybenzyl)pyrimidine], for which the values for the Ki in experiment [1] and in experiment [3] were 69 nM and > 100 nM, respectively.

As to `COc1ccccc1Cc1c(N)nc(SCCN2CCN(Cc3cccc(C(F)(F)F)c3)CC2)nc1N` [Example 36, 2-[2-/4-(3-Trifluoromethylbenzyl)-1-piperazinyl/ethylthio]-4,6-diamino-5-(2-methoxybenzyl)pyrimidine], the Ki in experiment [1] was 18 nM; in experiment [3] it was > 100 nM.

Consider `Cc1ccccc1CN1CCN(CCSc2nc(N)c(Cc3ccccc3Cl)c(N)n2)CC1` [Example 39, 2-[2-/4-(2-Methylbenzyl)-1-piperazinyl/-ethylthio]-4,6-diamino-5-(2-chloro-benzyl)pyrimidine], for which, in experiment [1], the Ki came to 27 nM. Moreover, in experiment [2], it took 300 nM to reach half-maximal inhibition (IC50).

In the case of `Cc1ccc(CN2CCN(CCSc3nc(N)c(Cc4ccccc4Cl)c(N)n3)CC2)cc1` [Example 40, 2-[2-/4-(4-Methylbenzyl)-1-piperazinyl/-ethylthio]-4,6-diamino-5-(2-chlorobenzyl)-pyrimidine], the Ki is > 100 nM in experiment [1] and 21 nM in experiment [3].

Consider `Nc1nc(SCCN2CCN(Cc3ccccc3Cl)CC2)nc(N)c1Cc1ccc(Cl)cc1` [Example 47, 2-[2-/4-(2-Chlorobenzyl)-1-piperazinyl/ethylthio]-4,6-diamino-5-(4-chlorobenzyl)-pyrimidine], for which the Ki in experiment [1] is 33 nM; in experiment [3], > 100 nM.

As to `CN(C)c1ccc(Cc2c(N)nc(SCCN3CCN(Cc4ccccc4C#N)CC3)nc2N)cc1` [Example 54, 2-[2-/4-(2-Cyanobenzyl)-1-piperazinyl/-ethylthio]-4,6-diamino-5-(4-dimethylamino-benzyl)pyrimidine], in experiment [2], half-maximal inhibition (IC50) required 570 nM.

On to `COc1ccc(CN2CCN(CCSc3nc(N)c(Cc4cc(OC)c(OC)c(OC)c4)c(N)n3)CC2)cc1` [Example 66, 2-[2-/4-(4-Methoxybenzyl)-1-piperazinyl/-ethylthio]-4,6-diamino-5-(3,4,5-trimethoxy-benzyl)pyrimidine], for which the Ki is > 100 nM in experiment [1] and 61 nM in experiment [3].

Turning to `CN(C)c1ccc(Cc2c(N)nc(SCCN3CCN(Cc4ccccc4Cl)CC3)nc2N)cc1` [Example 101, 2-[2-/4-(2-Chlorobenzyl)-1-piperazinyl/-ethylthio]-4,6-diamino-5-(4-dimethylamino-benzyl)pyrimidine], the results for the Ki in experiment [1] and in experiment [3] were 24 nM and 16 nM, respectively.
